For one assay, the target named is PI3 kinase alpha (Homo sapiens, UniProt P42336). The assay can be described thus: PI3K ATP depletion assay (Biological Method 1, Assay 3; KinaseGlo luminescence). In kind it is biochemical. The note with it: ATP depletion assay, Biological Method 1; read-out: PI3 Kinase Alpha, IC50. The method, then: The PI3 kinase alpha IC50 values shown in Table 1 were determined according to the ATP depletion assay as disclosed herein in Biological Method 1.
Assay 3: ATP Depletion Assay
Compounds to be tested are dissolved in DMSO and directly distributed into a black 384-well plate at 1.25 μL per well. To start the reaction, 25 μL of 10 nM PI3 kinase and 5 μg/mL 1-alpha-phosphatidylinositol (PI) are added into each well followed by 25 μL of 2 μM ATP. The reaction is performed until approx 50% of the ATP is depleted, and then stopped by the addition of 25 μL of KinaseGlo solution purchased from Promega. The stopped reaction is incubated for 5 minutes and the remaining ATP is then detected via luminescence.

Assay [1] concerns A2780 ovarian cancer cells. The assay can be described thus: Cellular proliferation in A2780 cells, Cell Titer Glo (Biological Method 4). Format: cell-based. The note with it: Homo sapiens; ovarian cancer cell line A2780, Biological Method 4. On the procedure: In addition, many of the compounds of Table 1 were tested to determine their inhibitory activity in a cellular proliferation assay according to Biological Method 4.
The ability of the compounds of the invention to inhibit cellular proliferation were determined by using Cell Titer Glo, a commercially available assay from Promega Corporation. A2780 ovarian cancer cells were seeded in TC treated 96-well plates at a density of 1,000 per well in DMEM, 10% FBS, 1% Sodium Pyruvate, and 1% Penicillin Streptomycin for a minimum of 2 hrs prior to addition of compound. For each concentration of test compound, 2 μl (500×) aliquots of compound or 100% DMSO diluted in 500 μl of culture medium for 2× concentration then diluted 1× on the Cells. Cells were incubated for 72 hrs at 37° C., 5% CO2. After the 72 hour incubation, Cell Titer Glo reagent is added to determine number of viable cells remaining after exposure to the compound, and the EC50 value was calculated. The assay was performed according to the manufacturer's instruction (Promega Corporation, Madison, Wis. USA). Each experimental condition was performed in duplicate.

Molecules are shown by their SMILES. pEC50, pIC50: −log10 of the molar value.

The source of these data is patent US8217035B2, “Pyrimidine derivatives used as PI-3-kinase inhibitors” (Novartis AG, priority 2006, dated 2012).

Chain of PI3 kinase alpha (P42336 whole entry): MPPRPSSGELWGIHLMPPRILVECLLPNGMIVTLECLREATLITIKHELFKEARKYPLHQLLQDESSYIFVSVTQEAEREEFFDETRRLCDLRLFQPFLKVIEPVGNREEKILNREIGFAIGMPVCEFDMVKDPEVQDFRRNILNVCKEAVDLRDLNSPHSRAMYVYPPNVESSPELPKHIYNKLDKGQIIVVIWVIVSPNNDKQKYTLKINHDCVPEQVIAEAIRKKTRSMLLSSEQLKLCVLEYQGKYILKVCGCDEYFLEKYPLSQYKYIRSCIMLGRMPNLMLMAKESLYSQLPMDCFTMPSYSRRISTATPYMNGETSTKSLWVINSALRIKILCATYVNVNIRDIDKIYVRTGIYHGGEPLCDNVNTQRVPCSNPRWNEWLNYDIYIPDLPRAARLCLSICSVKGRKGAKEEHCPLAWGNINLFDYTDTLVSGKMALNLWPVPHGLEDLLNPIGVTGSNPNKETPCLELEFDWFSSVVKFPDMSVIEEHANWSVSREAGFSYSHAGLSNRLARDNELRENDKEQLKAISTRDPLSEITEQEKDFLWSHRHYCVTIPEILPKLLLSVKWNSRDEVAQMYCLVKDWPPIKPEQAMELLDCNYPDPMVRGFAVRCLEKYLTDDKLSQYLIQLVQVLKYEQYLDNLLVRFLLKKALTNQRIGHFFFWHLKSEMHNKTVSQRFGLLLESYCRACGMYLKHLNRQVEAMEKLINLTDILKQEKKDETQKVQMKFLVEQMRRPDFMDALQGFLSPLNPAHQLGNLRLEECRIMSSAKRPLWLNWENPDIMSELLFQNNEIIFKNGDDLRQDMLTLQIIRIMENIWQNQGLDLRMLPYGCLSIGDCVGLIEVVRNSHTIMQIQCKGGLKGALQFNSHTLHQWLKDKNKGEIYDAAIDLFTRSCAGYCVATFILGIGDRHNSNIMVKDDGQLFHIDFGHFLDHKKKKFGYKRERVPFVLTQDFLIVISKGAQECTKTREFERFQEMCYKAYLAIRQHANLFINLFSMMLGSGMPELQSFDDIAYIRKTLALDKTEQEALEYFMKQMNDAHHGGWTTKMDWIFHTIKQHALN
Chain of PI3 kinase alpha (P27986 whole entry partner): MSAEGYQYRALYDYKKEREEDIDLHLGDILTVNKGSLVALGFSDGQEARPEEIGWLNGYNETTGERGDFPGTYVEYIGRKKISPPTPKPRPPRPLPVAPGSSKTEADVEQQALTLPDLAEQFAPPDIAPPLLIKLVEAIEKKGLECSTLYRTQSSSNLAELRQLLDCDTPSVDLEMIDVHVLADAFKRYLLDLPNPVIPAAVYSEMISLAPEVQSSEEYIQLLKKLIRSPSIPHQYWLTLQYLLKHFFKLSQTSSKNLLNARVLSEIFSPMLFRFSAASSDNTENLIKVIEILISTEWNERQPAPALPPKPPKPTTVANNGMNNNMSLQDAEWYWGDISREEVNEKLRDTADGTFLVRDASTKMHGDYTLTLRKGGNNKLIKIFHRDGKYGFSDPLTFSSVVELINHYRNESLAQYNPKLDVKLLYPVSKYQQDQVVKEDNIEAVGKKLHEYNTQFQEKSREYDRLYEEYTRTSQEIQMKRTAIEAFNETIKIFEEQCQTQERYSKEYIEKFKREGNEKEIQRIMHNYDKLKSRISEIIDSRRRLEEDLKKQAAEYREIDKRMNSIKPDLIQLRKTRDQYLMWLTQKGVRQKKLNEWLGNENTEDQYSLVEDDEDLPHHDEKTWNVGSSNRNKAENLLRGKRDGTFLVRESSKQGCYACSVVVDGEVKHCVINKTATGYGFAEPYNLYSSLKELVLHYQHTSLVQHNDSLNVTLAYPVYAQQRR

On to `Nc1ccc(-c2cc(-c3ccncc3)nc(N3CCOCC3)n2)cn1` [Compound 246], for which the pIC50 on PI3 kinase alpha was above 6.00. The compound further gave a pEC50 in assay [1] above 5.00.

As to `Cn1cc(-c2cc(-c3ccc(N)nc3)nc(N3CCOCC3)n2)cn1` [Compound 247], the pIC50 at PI3 kinase alpha was above 6.00. The pEC50 in assay [1] is above 5.00.

With `Nc1ccc(-c2cc(-c3cn[nH]c3)nc(N3CCOCC3)n2)cn1` [Compound 248], the pIC50 at PI3 kinase alpha is above 6.00. The compound also had a negative-log EC50 (pEC50) in assay [1] above 5.00.

Take `CS(=O)(=O)Nc1cccc(-c2cc(-c3ccc(N)nc3)nc(N3CCOCC3)n2)c1` [Compound 249]: the pIC50 on PI3 kinase alpha is above 6.00. The pEC50 in assay [1] is above 5.00.

Turning to `CC(=O)Nc1cccc(-c2cc(-c3ccc(N)nc3)nc(N3CCOCC3)n2)c1` [Compound 250], the pIC50 at PI3 kinase alpha is above 6.00. The compound also gave a pEC50 in assay [1] above 5.00.

With `NC(=O)c1cccc(-c2cc(-c3ccc(N)nc3)nc(N3CCOCC3)n2)c1` [Compound 251], the pIC50 on PI3 kinase alpha was above 6.00. Besides, the pEC50 in assay [1] is above 5.00.

Turning to `CC(=O)c1cccc(-c2cc(-c3ccc(N)nc3)nc(N3CCOCC3)n2)c1` [Compound 252], the negative logarithm of the IC50 (pIC50) on PI3 kinase alpha was above 6.00. This compound had a pEC50 in assay [1] above 5.00.

As to `CC(=O)Nc1ccccc1-c1cc(-c2ccc(N)nc2)nc(N2CCOCC2)n1` [Compound 253], the pIC50 on PI3 kinase alpha is above 6.00. This compound also had a pEC50 in assay [1] above 5.00.

As to `NC(=O)c1ccccc1-c1cc(-c2ccc(N)nc2)nc(N2CCOCC2)n1` [Compound 254], the pIC50 at PI3 kinase alpha was above 6.00. Also, in assay [1], the negative-log EC50 (pEC50) is above 4.60.

Turning to `CC(=O)c1ccccc1-c1cc(-c2ccc(N)nc2)nc(N2CCOCC2)n1` [Compound 255], the negative logarithm of the IC50 (pIC50) at PI3 kinase alpha was above 6.00. In assay [1], this compound gave a pEC50 above 4.60.

As to `Nc1ncc(-c2nc(N3CCOCC3)ncc2N)cn1` [Compound 258], at PI3 kinase alpha, the pIC50 was above 6.00. In assay [1], this compound had a negative logarithm of the EC50 (pEC50) above 4.60.

As to `Nc1ccc(-c2nc(N3CCOCC3)ncc2N)cn1` [Compound 259], on PI3 kinase alpha, the pIC50 was above 5.00. This compound gave a pEC50 in assay [1] above 4.60.

In the case of `CS(=O)(=O)Nc1ncccc1-c1cc(-c2cnc(N)nc2N)nc(N2CCOCC2)n1` [Compound 260], the pIC50 at PI3 kinase alpha is above 6.00. In assay [1], this compound gave a pEC50 above 5.00.

On to `CC(=O)N1CCC(Oc2ccc(Nc3cc(-c4cnc(N)nc4N)nc(N4CCOCC4)n3)cn2)CC1` [Compound 261], for which the negative logarithm of the IC50 (pIC50) on PI3 kinase alpha is above 6.00. Also, the pEC50 in assay [1] is above 5.00.

`CC(=O)N1CCC(Oc2ccc(Nc3cc(-c4cnc(N)cc4C(F)(F)F)nc(N4CCOCC4)n3)cn2)CC1` [Compound 262]: on PI3 kinase alpha, the pIC50 was above 6.00. Also, the negative-log EC50 (pEC50) in assay [1] was above 5.00.

As to `Nc1cc(C(F)(F)F)c(-c2cc(-c3cncc(CN4CCCCC4)c3)nc(N3CCOCC3)n2)cn1` [Compound 263], the pIC50 on PI3 kinase alpha is above 6.00. Moreover, the pEC50 in assay [1] was above 5.00.

Turning to `Nc1cc(C(F)(F)F)c(-c2cc(-c3cncc(CN4CCCC4)c3)nc(N3CCOCC3)n2)cn1` [Compound 264], the pIC50 on PI3 kinase alpha is above 6.00. In addition, the pEC50 in assay [1] is above 5.00.

For the compound `Nc1cc(C(F)(F)F)c(-c2cc(-c3cncc(S(=O)(=O)CCO)c3)nc(N3CCOCC3)n2)cn1` [Compound 265], the pIC50 on PI3 kinase alpha was above 6.00. The pEC50 in assay [1] is above 5.00.

Consider `CS(=O)(=O)c1cncc(-c2cc(-c3cnc(N)cc3C(F)(F)F)nc(N3CCOCC3)n2)c1` [Compound 266], for which, on PI3 kinase alpha, the negative-log IC50 (pIC50) was above 6.00. Moreover, the pEC50 in assay [1] was above 5.00.

In the case of `Nc1cc(C(F)(F)F)c(-c2cc(Nc3ccc(OC4CCOCC4)nc3)nc(N3CCOCC3)n2)cn1` [Compound 267], on PI3 kinase alpha, the pIC50 is above 6.00. In assay [1], this compound showed a pEC50 above 5.00.

As for `Nc1cc(C(F)(F)F)c(-c2cc(Nc3ccc(OC4CCOC4)nc3)nc(N3CCOCC3)n2)cn1` (stereo not shown) [Compound 268], the pIC50 at PI3 kinase alpha is above 6.00. The same compound had a pEC50 in assay [1] above 5.00.

In the case of `CN(C)CCOc1ccc(Nc2cc(-c3cnc(N)cc3C(F)(F)F)nc(N3CCOCC3)n2)cn1` [Compound 269], at PI3 kinase alpha, the pIC50 was above 6.00. The pEC50 in assay [1] is above 5.00.

Turning to `Cc1c(-c2cnc(N)nc2)nc(N2CCOCC2)nc1-c1cncc(OCCN(C)C)c1` [Compound 270], the pIC50 at PI3 kinase alpha is above 6.00. In addition, in assay [1], the pEC50 was above 4.60.
